Test results reported in patent publication US20250214967A1, “FAK DEGRADERS, PHARMACEUTICAL COMPOSITIONS, AND THERAPEUTIC APPLICATIONS” (Berrybio (Shanghai) Limited, priority 2022, published 2025).

Columns and labels:
[1] = molecular target: T1, FAK (Homo sapiens (Human), UniProt Q05397); assay: FAK Kinase Assay (TR-FRET, LanthaScreen); type: biochemical; details: FAK 1 nM, ATP 6.8 μM, fluorescein-polyGT 0.2 μM, 30 min; read-out: IC50, FAK Inhibition
Procedure: The inhibitory activity of a compound against FAK was determined in a buffer containing 5 mM HEPES, pH 7.5, 0.01% Triton, 0.5 mM EGTA, and 0.01% BRIJ™-35 in a 384-well assay plate. The assay was carried out in the presence of the FAK at 1 nM and ATP at 6.8 μM using fluorescein-polyGT (0.2 μM) as an FAK substrate. Each assay mixture was incubated at room temperature for 30 min. A LANTHASCREEN® Tb-PY20 antibody was added to each well to stop the enzymatic reaction. The plate was incubated at room temperature for 60 min before reading on an ENVISION using TR-FRET module (excitation at 340 nm and emission at 520 nm and 495 nm).
Target sequence in this assay (Q05397 whole entry, species assumed): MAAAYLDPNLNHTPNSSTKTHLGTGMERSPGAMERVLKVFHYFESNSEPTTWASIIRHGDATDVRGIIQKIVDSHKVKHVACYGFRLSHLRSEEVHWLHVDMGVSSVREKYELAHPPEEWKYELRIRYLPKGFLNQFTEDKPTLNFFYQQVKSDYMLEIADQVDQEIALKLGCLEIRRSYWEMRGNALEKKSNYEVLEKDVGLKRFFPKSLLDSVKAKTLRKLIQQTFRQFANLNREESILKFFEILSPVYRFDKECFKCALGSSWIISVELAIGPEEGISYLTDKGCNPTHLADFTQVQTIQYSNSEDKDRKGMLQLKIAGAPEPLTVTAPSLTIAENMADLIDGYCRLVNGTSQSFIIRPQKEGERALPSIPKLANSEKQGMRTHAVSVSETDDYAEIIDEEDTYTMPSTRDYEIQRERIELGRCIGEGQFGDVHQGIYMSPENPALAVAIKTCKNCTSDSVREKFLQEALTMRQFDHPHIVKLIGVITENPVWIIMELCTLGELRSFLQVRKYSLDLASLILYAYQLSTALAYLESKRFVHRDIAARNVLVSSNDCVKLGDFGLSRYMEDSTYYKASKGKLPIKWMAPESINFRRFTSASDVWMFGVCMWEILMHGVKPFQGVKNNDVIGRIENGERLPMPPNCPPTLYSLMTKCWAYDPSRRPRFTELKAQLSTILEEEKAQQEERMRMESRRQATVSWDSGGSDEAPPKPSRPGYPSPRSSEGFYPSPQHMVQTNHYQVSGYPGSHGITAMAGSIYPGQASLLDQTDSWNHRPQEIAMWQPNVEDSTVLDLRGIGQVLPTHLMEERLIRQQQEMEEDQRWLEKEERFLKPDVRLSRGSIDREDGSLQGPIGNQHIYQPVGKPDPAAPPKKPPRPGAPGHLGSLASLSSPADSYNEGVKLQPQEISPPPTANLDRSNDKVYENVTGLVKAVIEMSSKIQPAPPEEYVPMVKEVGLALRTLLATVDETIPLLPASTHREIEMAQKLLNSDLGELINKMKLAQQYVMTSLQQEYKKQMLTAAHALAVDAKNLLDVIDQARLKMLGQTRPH

[2] = molecular target: T1, FAK; assay: FAK Degradation Assay (Western blot, FAK/GAPDH); type: cell-based; details: MDA-MB-231 cells, 24 h treatment, Western blot normalized to DMSO; for DC50: read-out: DC50 (half-maximal degradation concentration), FAK Degradation; for Dmax: read-out: Dmax (maximal degradation), FAK Degradation
Procedure: H2122 (4×10^5), MIA PaCa-2 (6×10s), or MDA-MB-231 cells (6×10^5) per well were seeded into a 6-well plate containing 2 mL of complete culture medium (RPMI-1640 for H2122 and MDA-MB-231, and DMEM/F12 for MIA PaCa-2, supplemented with 10% FBS and 1% penicillin/streptomycin). The cells were cultured overnight at 37° C. in the presence of 5% C02 before treated with a compound in a series of concentrations for 24 h. The cells were then washed with ice-cold Dulbecco's phosphate-buffered saline (DPBS). A radioimmuno-precipitation assay (RIPA) buffer was added to lyse the cells on ice for 20 min. The cells were then scrapped using cell scraper and collected in a 1.5 mL tube, which was centrifuged at 14,000 g and 4° C. for 15 min. The supernatant was collected and the total protein concentration of each sample was determined using a PIERCE™ BCA protein assay kit. The supernatant was diluted to the same protein concentration with the RIPA buffer after the BCA assay. Samples of the same protein amount were mixed with 4× a lithium dodecyl sulfate (LDS) sample buffer and boiled at 95° C. for 5 min. The denatured samples were used for electrophoresis.
For Western blot, the same volume containing ˜50 μg protein for each sample was loaded onto 4-12% Bis-Tris protein gel. The gel was run at 80 V for 0.5 h and at 120 V for 1 h. When the electrophoresis was completed, an IBLOT™ 2 gel transfer device was used to transfer FAK and GAPDH proteins at 20 V for 7 min. All the membranes were blocked in 5% nonfat dry milk in a TBST buffer at RT for 1 h and then incubated with primary antibodies (anti-FAK and anti-GAPDH) in a TBST buffer containing 5% BSA at 4° C. overnight. The membranes were washed with the TBST buffer and then incubated with secondary antibodies (goat anti-rabbit IgG H&L for FAK and goat anti-mouse IgG H&L for GAPDH) at room temperature for 1 h. Blots were visualized using an IMAGEQUANT™ LAS-4000. The chemiluminescent signals from ECL™ Western blotting reagents were captured. The band integrated intensity from each 16-bit blot image was used for quantitation. The FAK/GAPDH signal ratios of each sample were normalized using DMSO as a control and the normalized data for each compound were used to obtain its half-maximal degradation concentration (DC50) and maximal degradation (Dmax).
Target sequence in this assay (Q05397 whole entry): as the sequence (Q05397 whole entry, species assumed) above

DC50 [2] [nM]	Dmax [2] [%]	Compound	IC50 [1] [nM]
1980	100	Cc1cc(OCCOCCOCCOc2ccc3c(c2)C(=O)N(C2CCC(=O)NC2=O)C3=O)ccc1Nc1ncc(C(F)(F)F)c(NCc2cccc(P(C)(C)=O)c2)n1 (centres unmarked) [Compound A3, 5-(2-(2-(2-(4-((4-((3-(Dimethylphosphoryl)benzyl)amino)-5-(trifluoromethyl)-pyrimidin-2-yl)amino)-3-methylphenoxy)ethoxy)ethoxy)ethoxy)-2-(2,6-dioxopiperidin-3-yl)-isoindoline-1,3-dione]	223
0.6	99	CN(c1nccnc1CNc1nc(Nc2ccc(CNC3CCN(c4ccc5c(c4)C(=O)N(C4CCC(=O)NC4=O)C5=O)CC3)cc2)ncc1C(F)(F)F)S(C)(=O)=O (centres unmarked) [Compound A7, N-(3-(((2-((4-(((1-(2-(2,6-Dioxopiperidin-3-yl)-1,3-dioxoisoindolin-5-yl)-piperidin-4-yl)amino)methyl)phenyl)amino)-5-(trifluoromethyl)pyrimidin-4-yl)amino)methyl)-pyrazin-2-yl)-N-methylmethanesulfonamide]	0.47
2.5	99	CN(c1nccnc1CNc1nc(Nc2ccc(CNC3CCN(CC4CCN(c5ccc6c(c5)C(=O)N(C5CCC(=O)NC5=O)C6=O)CC4)CC3)cc2)ncc1C(F)(F)F)S(C)(=O)=O (centres unmarked) [Compound A6, N-(3-(((2-((4-(((1-((1-(2-(2,6-Dioxopiperidin-3-yl)-1,3-dioxoisoindolin-5-yl)-piperidin-4-yl)methyl)piperidin-4-yl)amino)methyl)phenyl)amino)-5-(trifluoromethyl)pyrimidin-4-yl)amino)methyl)pyrazin-2-yl)-N-methylmethanesulfonamide]	0.39
0.86	94	CNC(=O)c1ccccc1Nc1cc(Nc2ccc(CN[C@H]3CCN(c4ccc5c(c4)C(=O)N(C4CCC(=O)NC4=O)C5=O)C3)cc2)ncc1C(F)(F)F (stereo partly drawn) [Compound A33, 2-((2-((4-((((3S)-1-(2-(2,6-Dioxopiperidin-3-yl)-1,3-dioxoisoindolin-5-yl)-pyrrolidin-3-yl)amino)methyl)phenyl)amino)-5-(trifluoromethyl)pyridin-4-yl)amino)-N-methylbenzamide]	
1.2	92	CN(c1nccnc1CNc1nc(Nc2ccc(CNC3CCN(c4ccc(C5CCC(=O)NC5=O)cc4)CC3)cc2)ncc1C(F)(F)F)S(C)(=O)=O (centres unmarked) [Compound B1, N-(3-(((2-((4-(((1-(4-(2,6-Dioxopiperidin-3-yl)phenyl)piperidin-4-yl)amino)-methyl)phenyl)amino)-5-(trifluoromethyl)pyrimidin-4-yl)amino)methyl)pyrazin-2-yl)-N-methyl-methanesulfonamide]	
2.7	93	CN(c1cccc(CNc2cc(Nc3ccc(CNC4CCN(c5ccc6c(c5)C(=O)N(C5CCC(=O)NC5=O)C6=O)CC4)cc3)ncc2C(F)(F)F)c1)S(C)(=O)=O (centres unmarked) [Compound A16, N-(3-(((2-((4-(((1-(2-(2,6-Dioxopiperidin-3-yl)-1,3-dioxoisoindolin-5-yl)-piperidin-4-yl)amino)methyl)phenyl)amino)-5-(trifluoromethyl)pyridin-4-yl)amino)methyl)-phenyl)-N-methylmethanesulfonamide]	
0.86	94	CNC(=O)c1ccccc1Nc1nc(Nc2ccc(CNC3CCN(c4ccc5c(c4)C(=O)N(C4CCC(=O)NC4=O)C5=O)CC3)c(F)c2)ncc1C(F)(F)F (centres unmarked) [Compound A37, 2-((2-((4-(((1-(2-(2,6-dioxopiperidin-3-yl)-1,3-dioxoisoindolin-5-yl)piperidin-4-yl)-amino)methyl)-3-fluorophenyl)amino)-5-(trifluoromethyl)pyrimidin-4-yl)amino)-N-methyl-benzamide]	
0.84	88	CNC(=O)c1ccccc1Nc1nc(Nc2ccc3c(c2)CC(=O)N3CC2CCN(c3ccc4c(c3)C(=O)N(C3CCC(=O)NC3=O)C4=O)CC2)ncc1C(F)(F)F (centres unmarked) [Compound A38, 2-((2-((1-((1-(2-(2,6-dioxopiperidin-3-yl)-1,3-dioxoisoindolin-5-yl)piperidin-4-yl)methyl)-2-oxoindolin-5-yl)amino)-5-(trifluoromethyl)pyrimidin-4-yl)amino)-N-methylbenzamide]	
6.1	98	CN(c1cccc(CNc2cc(Nc3ccc(CNC4CCN(c5ccc6c(c5)C(=O)N(C5CCC(=O)NC5=O)C6=O)CC4)c(F)c3)ncc2C(F)(F)F)c1)S(C)(=O)=O (centres unmarked) [Compound A31, N-(3-(((2-((4-(((1-(2-(2,6-Dioxopiperidin-3-yl)-1,3-dioxoisoindolin-5-yl)-piperidin-4-yl)amino)methyl)-3-fluorophenyl)amino)-5-(trifluoromethyl)pyridin-4-yl)amino)-methyl)phenyl)-N-methylmethanesulfonamide]	
0.96	92	CNC(=O)c1ccccc1Nc1nc(Nc2ccc(CCN3CCN(c4ccc5c(c4)C(=O)N(C4CCC(=O)NC4=O)C5=O)CC3)c(F)c2)ncc1C(F)(F)F (centres unmarked) [Compound A44, 2-((2-((4-(2-(4-(2-(2,6-dioxopiperidin-3-yl)-1,3-dioxoisoindolin-5-yl)piperazin-1-yl)ethyl)-3-fluorophenyl)amino)-5-(trifluoromethyl)pyrimidin-4-yl)amino)-N-methylbenzamide]	

Compound	DC50 [2] [nM]	Dmax [2] [%]	IC50 [1] [nM]
CN(c1nccnc1CNc1nc(Nc2ccc(C(=O)N3CCC(N4CCN(c5ccc6c(c5)C(=O)N(C5CCC(=O)NC5=O)C6=O)CC4)CC3)cc2)ncc1C(F)(F)F)S(C)(=O)=O (centres unmarked) [Compound A5, N-(3-(((2-((4-(4-(4-(2-(2,6-dioxopiperidin-3-yl)-1,3-dioxoisoindolin-5-yl)-piperazin-1-yl)piperidine-1-carbonyl)phenyl)amino)-5-(trifluoromethyl)pyrimidin-4-yl)amino)-methyl)pyrazin-2-yl)-N-methylmethanesulfonamide]	1.4	89	1.8
Cc1cc(OCCOCCOCCOc2ccc3c(c2)C(=O)N(C2CCC(=O)NC2=O)C3=O)ccc1Nc1ncc(C(F)(F)F)c(NCc2cccc(N(C)S(C)(=O)=O)c2)n1 (centres unmarked) [Compound A1, N-(3-(((2-((4-(2-(2-(2-((2-(2,6-dioxopiperidin-3-yl)-1,3-dioxoisoindolin-5-yl)oxy)ethoxy)ethoxy)ethoxy)-2-methylphenyl)amino)-5-(trifluoromethyl)pyrimidin-4-yl)-amino)methyl)phenyl)-N-methylmethanesulfonamide]	7	89	4.5
CN(c1nccnc1CNc1nc(Nc2ccc(C(=O)NC3CCN(CC4CCN(c5ccc6c(c5)C(=O)N(C5CCC(=O)NC5=O)C6=O)CC4)CC3)cc2)ncc1C(F)(F)F)S(C)(=O)=O (centres unmarked) [Compound A4, N-(1-((1-(2-(2,6-dioxopiperidin-3-yl)-1,3-dioxoisoindolin-5-yl)piperidin-4-yl)methyl)piperidin-4-yl)-4-((4-(((3-(N-methylmethylsulfonamido)pyrazin-2-yl)methyl)amino)-5-(trifluoromethyl)pyrimidin-2-yl)amino)benzamide]	0.5	92	0.4
